Test system: sprouting from wild-type, TFΔCT and PAR-2-deficient aortas
Assay: ex vivo angiogenesis assay (aortic ring sprouting in Matrigel)
Format: cell-based, mouse
Conditions: for sprouting induced by single factor replacing serum: wild-type and TFΔCT aortas, EGM without serum, day 4, growth factors 20 ng/ml, VIIa 50 nM (FIG. 2c)
Protocol: Angiogenesis assays. The ex vivo angiogenesis assay was adopted from the rat aortic sprouting model described by Masson et al. Biol. Proced. […] Thoracic aortas from 8-11 week old wild-type, TFΔCT, PAR-2-deficient, and TFΔCT/PAR-2-deficient mice of either sex were embedded in Matrigel, and overlaid with EGM supplemented with 5% serum, growth factors, or inhibitors at the following concentrations: VEGF, bFGF, and PDGF: 20 ng/ml; hirudin: 500 nM, VIIai: […], NAPc2: […], NAP5: 1 μM, VIIa: 50 nM. In most cases, the number of aortic sprouts was determined at day 3 and 4 without knowledge of the genotype. Aortic ring RNA was isolated by Trizol (Invitrogen) extraction using standard procedures, digested with DNAaseI, followed by RT-PCR for β-actin and TF. […] Tests used 2 different virus doses, referred to as high (1.1×10^10 virus particles/ml) and low (5×10^9 particles/ml). For confocal fluorescence microscopy, aortic pieces with a minimum of surrounding Matrigel were fixed with 4% paraformaldehyde and methanol, incubated with primary and secondary antibodies (24 hours each), and mounted in anti-fade medium (Vector laboratories). Alternatively, cryosections of OCT-embedded aortas were fixed with acetone and stained as described above.

| Substance | sprouting induced by single factor replacing serum | sprouting of aortas stimulated with VEGF in the absence of serum (VEGF 20 ng/ml, no serum, day 3 (FIG. 2a)) | difference in sprouting TFΔCT versus wild-type aortas with serum supplemented with VEGF (serum plus VEGF 20 ng/ml, day 3 (FIG. 2a)) | effect of protease inhibitor on aortic sprouting (wild-type and TFΔCT aortas in serum, 3 days, hirudin 500 nM, NAP5 1 μM (FIG. 2b)) |
| --- | --- | --- | --- | --- |
| PDGF-AA: selective agonist for PDGF receptor a | None of these factors promoted substantial sprouting |  |  |  |
| VEGF | None of these factors promoted substantial sprouting | very limited sprouting | did not abolish the difference in sprouting |  |
| bFGF: pro-angiogenic growth factor | None of these factors promoted substantial sprouting |  |  |  |
| hirudin [reference compound] |  |  |  | no effect on sprouting |

Reference: patent US20070207154A1, “METHOD OF MODULATING VASCULARIZATION” (priority 2004, published 2007)
